ChEMBL document CHEMBL3774313, “Natural product-based design, synthesis and biological evaluation of Albiziabioside A derivatives that selectively induce HCT116 cell death” (Eur J Med Chem, 2016)

Tests used:
Format in all cases: functional, cell-based
HeLa = assay: Antiproliferative activity against human HeLa cells assessed as cell viability after 72 hrs by MTT assay
MCF7 = assay: Antiproliferative activity against human MCF7 cells assessed as cell viability after 72 hrs by MTT assay; conditions: MCF7, 72 h
HepG2 = assay: Antiproliferative activity against human HepG2 cells assessed as cell viability after 72 hrs by MTT assay; conditions: HepG2, 72 h
A549 = assay: Antiproliferative activity against human A549 cells assessed as cell viability after 72 hrs by MTT assay; conditions: A549, 72 h
[1] = Antiproliferative activity against human HCT116 cells assessed as cell viability after 72 hrs by MTT assay; conditions: HCT-116, 72 h
[2] = Antiproliferative activity against human HL60 cells assessed as cell viability after 72 hrs by MTT assay; conditions: HL-60, 72 h
[3] = Cytotoxicity against mouse J774A1 cells assessed as cell viability after 72 hrs by MTT assay; conditions: J774.A1, 72 h

SMILES	IC50 (HeLa) [µM]	IC50 (MCF7) [µM]	IC50 (HepG2) [µM]	IC50 (A549) [µM]	IC50 [1] [µM]	IC50 [2] [µM]	IC50 [3] [µM]
COc1cc(/C=C/C(=O)N[C@H]2[C@H](O[C@H]3CC[C@]4(C)[C@H]5CC=C6[C@@H]7CC(C)(C)CC[C@]7(C(=O)O)CC[C@@]6(C)[C@]5(C)CC[C@H]4C3(C)C)O[C@H](CO[C@@H]3OC[C@H](O)[C@H](O)[C@H]3O)[C@@H](O)[C@@H]2O)cc(OC)c1	> 50	> 50	> 50	> 50	> 50	> 50	
CC(=O)N[C@H]1[C@H](O[C@H]2CC[C@]3(C)[C@H]4CC=C5[C@@H]6CC(C)(C)CC[C@]6(C(=O)O)CC[C@@]5(C)[C@]4(C)CC[C@H]3C2(C)C)O[C@H](CO)[C@@H](O[C@@H]2O[C@H](CO)[C@@H](O)[C@H](O)[C@H]2O)[C@@H]1O[C@H]1O[C@@H](CO)[C@@H](O)[C@@H](O)[C@@H]1O							0.15
Cc1ccc(/C=C/C(=O)N[C@H]2[C@H](O[C@H]3CC[C@]4(C)[C@H]5CC=C6[C@@H]7CC(C)(C)CC[C@]7(C(=O)O)CC[C@@]6(C)[C@]5(C)CC[C@H]4C3(C)C)O[C@H](CO[C@@H]3OC[C@H](O)[C@H](O)[C@H]3O)[C@@H](O)[C@@H]2O)cc1	> 50	38.1	> 50	> 50	16.3	> 50	
COc1ccc(/C=C/C(=O)N[C@H]2[C@H](O[C@H]3CC[C@]4(C)[C@H]5CC=C6[C@@H]7CC(C)(C)CC[C@]7(C(=O)O)CC[C@@]6(C)[C@]5(C)CC[C@H]4C3(C)C)O[C@H](CO[C@@H]3OC[C@H](O)[C@H](O)[C@H]3O)[C@@H](O)[C@@H]2O)cc1OC	> 50	> 50	> 50	> 50	> 50	> 50	
CC1(C)CC[C@]2(C(=O)O)CC[C@]3(C)C(=CC[C@@H]4[C@@]5(C)CC[C@H](O[C@@H]6O[C@H](CO[C@@H]7OC[C@H](O)[C@H](O)[C@H]7O)[C@@H](O)[C@H](O)[C@H]6NC(=O)/C=C/c6ccc(F)cc6)C(C)(C)[C@@H]5CC[C@]43C)[C@@H]2C1	> 50	> 50	> 50	> 50	37.5	> 50	
CC1(C)CC[C@]2(C(=O)O)CC[C@]3(C)C(=CC[C@@H]4[C@@]5(C)CC[C@H](O[C@@H]6O[C@H](CO[C@@H]7OC[C@H](O)[C@H](O)[C@H]7O)[C@@H](O)[C@H](O)[C@H]6NC(=O)/C=C/c6cccc(Cl)c6)C(C)(C)[C@@H]5CC[C@]43C)[C@@H]2C1	> 50	> 50	> 50	> 50	11.9	> 50	
CC1(C)CC[C@]2(C(=O)O)CC[C@]3(C)C(=CC[C@@H]4[C@@]5(C)CC[C@H](O[C@@H]6O[C@H](CO[C@@H]7OC[C@H](O)[C@H](O)[C@H]7O)[C@@H](O)[C@H](O)[C@H]6NC(=O)/C=C/c6ccccc6)C(C)(C)[C@@H]5CC[C@]43C)[C@@H]2C1	40.2	45.2	> 50	> 50	19.3	> 50	
CC(=O)N[C@H]1[C@H](O[C@H]2CC[C@]3(C)[C@H]4CC=C5[C@@H]6CC(C)(C)CC[C@]6(C(=O)O)CC[C@@]5(C)[C@]4(C)CC[C@H]3C2(C)C)O[C@H](CO[C@@H]2OC[C@H](O)[C@H](O)[C@H]2O)[C@@H](O)[C@@H]1O	5.27	9.34	10.3	5.27	16	9.92	
CC1(C)CC[C@]2(C(=O)O)CC[C@]3(C)C(=CC[C@@H]4[C@@]5(C)CC[C@H](O[C@@H]6O[C@H](CO[C@@H]7OC[C@H](O)[C@H](O)[C@H]7O)[C@@H](O)[C@H](O)[C@H]6NC(=O)/C=C/c6cccc(F)c6)C(C)(C)[C@@H]5CC[C@]43C)[C@@H]2C1	48.4	> 50	> 50	32.8	8.5	> 50	
CC1(C)CC[C@]2(C(=O)O)CC[C@]3(C)C(=CC[C@@H]4[C@@]5(C)CC[C@H](O[C@@H]6O[C@H](CO[C@@H]7OC[C@H](O)[C@H](O)[C@H]7O)[C@@H](O)[C@H](O)[C@H]6NC(=O)/C=C/c6cccc(Br)c6)C(C)(C)[C@@H]5CC[C@]43C)[C@@H]2C1	> 50	> 50	> 50	> 50	10.2	> 50	
COc1ccccc1/C=C/C(=O)N[C@H]1[C@H](O[C@H]2CC[C@]3(C)[C@H]4CC=C5[C@@H]6CC(C)(C)CC[C@]6(C(=O)O)CC[C@@]5(C)[C@]4(C)CC[C@H]3C2(C)C)O[C@H](CO[C@@H]2OC[C@H](O)[C@H](O)[C@H]2O)[C@@H](O)[C@@H]1O	> 50	> 50	> 50	> 50	> 50	> 50	
COc1cccc(/C=C/C(=O)N[C@H]2[C@H](O[C@H]3CC[C@]4(C)[C@H]5CC=C6[C@@H]7CC(C)(C)CC[C@]7(C(=O)O)CC[C@@]6(C)[C@]5(C)CC[C@H]4C3(C)C)O[C@H](CO[C@@H]3OC[C@H](O)[C@H](O)[C@H]3O)[C@@H](O)[C@@H]2O)c1OC	> 50	> 50	> 50	> 50	> 50	> 50	
Cc1cccc(/C=C/C(=O)N[C@H]2[C@H](O[C@H]3CC[C@]4(C)[C@H]5CC=C6[C@@H]7CC(C)(C)CC[C@]7(C(=O)O)CC[C@@]6(C)[C@]5(C)CC[C@H]4C3(C)C)O[C@H](CO[C@@H]3OC[C@H](O)[C@H](O)[C@H]3O)[C@@H](O)[C@@H]2O)c1	> 50	> 50	> 50	> 50	> 50	> 50	
CC1(C)CC[C@]2(C(=O)O)CC[C@]3(C)C(=CC[C@@H]4[C@@]5(C)CC[C@H](O[C@@H]6O[C@H](CO[C@@H]7OC[C@H](O)[C@H](O)[C@H]7O)[C@@H](O)[C@H](O)[C@H]6NC(=O)/C=C/c6ccc(OCc7ccccc7)cc6)C(C)(C)[C@@H]5CC[C@]43C)[C@@H]2C1	> 50	> 50	> 50	> 50	23.8	> 50	
CC1(C)CC[C@]2(C(=O)O)CC[C@]3(C)C(=CC[C@@H]4[C@@]5(C)CC[C@H](O[C@@H]6O[C@H](CO[C@@H]7OC[C@H](O)[C@H](O)[C@H]7O)[C@@H](O)[C@H](O)[C@H]6NC(=O)/C=C/c6ccc(C(C)(C)C)cc6)C(C)(C)[C@@H]5CC[C@]43C)[C@@H]2C1	39.2	> 50	> 50	> 50	13.6	> 50	
CC1(C)CC[C@]2(C(=O)O)CC[C@]3(C)C(=CC[C@@H]4[C@@]5(C)CC[C@H](O[C@@H]6O[C@H](CO[C@@H]7OC[C@H](O)[C@H](O)[C@H]7O)[C@@H](O)[C@H](O)[C@H]6NC(=O)/C=C/c6ccc(Br)cc6)C(C)(C)[C@@H]5CC[C@]43C)[C@@H]2C1	> 50	> 50	> 50	> 50	33.2	> 50	
COc1ccc(OC)c(/C=C/C(=O)N[C@H]2[C@H](O[C@H]3CC[C@]4(C)[C@H]5CC=C6[C@@H]7CC(C)(C)CC[C@]7(C(=O)O)CC[C@@]6(C)[C@]5(C)CC[C@H]4C3(C)C)O[C@H](CO[C@@H]3OC[C@H](O)[C@H](O)[C@H]3O)[C@@H](O)[C@@H]2O)c1	> 50	> 50	> 50	> 50	> 50	> 50	
CC1(C)CC[C@]2(C(=O)O)CC[C@]3(C)C(=CC[C@@H]4[C@@]5(C)CC[C@H](O[C@@H]6O[C@H](CO[C@@H]7OC[C@H](O)[C@H](O)[C@H]7O)[C@@H](O)[C@H](O)[C@H]6NC(=O)/C=C/c6ccc(Cl)cc6)C(C)(C)[C@@H]5CC[C@]43C)[C@@H]2C1	> 50	> 50	> 50	> 50	> 50	> 50	
CC(=O)N[C@H]1[C@H](O[C@H]2CC[C@]3(C)[C@H]4CC=C5[C@@H]6CC(C)(C)CC[C@]6(C(=O)O)CC[C@@]5(C)[C@]4(C)CC[C@H]3C2(C)C)O[C@H](CO)[C@@H](O)[C@@H]1O[C@@H]1O[C@H](CO)[C@H](O)[C@H](O)[C@H]1O [LOTOIDOSIDE E]							0.018
CCOc1ccc(/C=C/C(=O)N[C@H]2[C@H](O[C@H]3CC[C@]4(C)[C@H]5CC=C6[C@@H]7CC(C)(C)CC[C@]7(C(=O)O)CC[C@@]6(C)[C@]5(C)CC[C@H]4C3(C)C)O[C@H](CO[C@@H]3OC[C@H](O)[C@H](O)[C@H]3O)[C@@H](O)[C@@H]2O)cc1	> 50	> 50	> 50	> 50	13	> 50	
O=c1[nH]cc(F)c(=O)[nH]1 [FLUOROURACIL]	26.2	26.1	49	> 50	38.3	27.4	
